Data: PMC9487510, “A Novel Oral GyrB/ParE Dual Binding Inhibitor Effective against Multidrug-Resistant Neisseria gonorrhoeae and Other High-Threat Pathogens” (Antimicrobial Agents and Chemotherapy, 2022)
In brackets after ≈: the same amount, converted by molar mass. Where two headings read alike, the source gives them in different places.

Test system: N. gonorrhoeae clinical isolates
Test: MIC, agar dilution (CLSI)
Assay type: cell-based, Neisseria gonorrhoeae
Details: for MIC: read-out: MIC

## CO/N=C(\C(=O)N[C@@H]1C(=O)N2C(C(=O)O)=C(CSc3nc(=O)c(=O)[nH]n3C)CS[C@H]12)c1csc(N)n1 [Cro, ceftriaxone]
96 clinical isolates
  MIC range: <0.002 to 0.125 µg/mL
Neisseria gonorrhoeae, strain CDC1 (GCREF2012 016)
  MIC: 0.031 µg/mL (≈ 0.0559 µM)
Neisseria gonorrhoeae, strain CDC2 (GCREF2012 045)
  MIC: 0.031 µg/mL (≈ 0.0559 µM)
Neisseria gonorrhoeae, strain CDC3 (GCREF2013 013)
  MIC: 0.031 µg/mL (≈ 0.0559 µM)
Neisseria gonorrhoeae, strain CDC4 (GCREF2013 030)
  MIC: 0.031 µg/mL (≈ 0.0559 µM)
Neisseria gonorrhoeae, strain CDC5 (GCREF2012 001)
  MIC: 0.063 µg/mL (≈ 0.114 µM)
Neisseria gonorrhoeae, strain CDC6 (GCREF2012 002)
  MIC: 0.063 µg/mL (≈ 0.114 µM)
Neisseria gonorrhoeae, strain CDC8 (GCREF2012 004)
  MIC: 0.016 µg/mL (≈ 0.0289 µM)
Neisseria gonorrhoeae, strain CDC9 (GCREF2012 005)
  MIC: 0.031 µg/mL (≈ 0.0559 µM)
Neisseria gonorrhoeae, strain CDC10 (GCREF2012 006)
  MIC: 0.031 µg/mL (≈ 0.0559 µM)
Neisseria gonorrhoeae, strain CDC11 (GCREF2012 007)
  MIC: 0.031 µg/mL (≈ 0.0559 µM)
Neisseria gonorrhoeae, strain CDC12 (GCREF2012 008)
  MIC: 0.031 µg/mL (≈ 0.0559 µM)
Neisseria gonorrhoeae, strain CDC13 (GCREF2012 009)
  MIC: 0.031 µg/mL (≈ 0.0559 µM)
Neisseria gonorrhoeae, strain CDC14 (GCREF2012 010)
  MIC: 0.031 µg/mL (≈ 0.0559 µM)
Neisseria gonorrhoeae, strain CDC15 (GCREF2012 011)
  MIC: 0.008 µg/mL (≈ 0.0144 µM)
Neisseria gonorrhoeae, strain CDC16 (GCREF2012 012)
  MIC: 0.063 µg/mL (≈ 0.114 µM)
Neisseria gonorrhoeae, strain CDC18 (GCREF2012 014)
  MIC: 0.063 µg/mL (≈ 0.114 µM)
Neisseria gonorrhoeae, strain CDC19 (GCREF2012 015)
  MIC: 0.008 µg/mL (≈ 0.0144 µM)
Neisseria gonorrhoeae, strain CDC20 (GCREF2012 017)
  MIC: 0.063 µg/mL (≈ 0.114 µM)
Neisseria gonorrhoeae, strain CDC21 (GCREF2012 018)
  MIC: 0.031 µg/mL (≈ 0.0559 µM)
Neisseria gonorrhoeae, strain CDC22 (GCREF2012 019)
  MIC: 0.008 µg/mL (≈ 0.0144 µM)
Neisseria gonorrhoeae, strain CDC23 (GCREF2012 020)
  MIC: 0.031 µg/mL (≈ 0.0559 µM)
Neisseria gonorrhoeae, strain CDC24 (GCREF2012 021)
  MIC: 0.063 µg/mL (≈ 0.114 µM)
Neisseria gonorrhoeae, strain CDC25 (GCREF2012 022)
  MIC: 0.031 µg/mL (≈ 0.0559 µM)
Neisseria gonorrhoeae, strain CDC26 (GCREF2012 023)
  MIC: 0.031 µg/mL (≈ 0.0559 µM)
Neisseria gonorrhoeae, strain CDC27 (GCREF2012 024)
  MIC: 0.031 µg/mL (≈ 0.0559 µM)
Neisseria gonorrhoeae, strain CDC28 (GCREF2012 025)
  MIC: 0.031 µg/mL (≈ 0.0559 µM)
Neisseria gonorrhoeae, strain CDC29 (GCREF2012 026)
  MIC: 0.016 µg/mL (≈ 0.0289 µM)
Neisseria gonorrhoeae, strain CDC30 (GCREF2012 027)
  MIC: 0.031 µg/mL (≈ 0.0559 µM)
Neisseria gonorrhoeae, strain CDC31 (GCREF2012 028)
  MIC: 0.031 µg/mL (≈ 0.0559 µM)
Neisseria gonorrhoeae, strain CDC32 (GCREF2012 029)
  MIC: 0.063 µg/mL (≈ 0.114 µM)
Neisseria gonorrhoeae, strain CDC33 (GCREF2012 030)
  MIC: 0.125 µg/mL (≈ 0.225 µM)
Neisseria gonorrhoeae, strain CDC34 (GCREF2012 031)
  MIC: 0.125 µg/mL (≈ 0.225 µM)
Neisseria gonorrhoeae, strain CDC35 (GCREF2012 032)
  MIC: 0.125 µg/mL (≈ 0.225 µM)
Neisseria gonorrhoeae, strain CDC36 (GCREF2012 033)
  MIC: 0.031 µg/mL (≈ 0.0559 µM)
Neisseria gonorrhoeae, strain CDC37 (GCREF2012 034)
  MIC: 0.031 µg/mL (≈ 0.0559 µM)
Neisseria gonorrhoeae, strain CDC38 (GCREF2012 035)
  MIC: 0.031 µg/mL (≈ 0.0559 µM)
Neisseria gonorrhoeae, strain CDC39 (GCREF2012 036)
  MIC: 0.031 µg/mL (≈ 0.0559 µM)
Neisseria gonorrhoeae, strain CDC40 (GCREF2012 037)
  MIC: 0.031 µg/mL (≈ 0.0559 µM)
Neisseria gonorrhoeae, strain CDC41 (GCREF2012 038)
  MIC: 0.031 µg/mL (≈ 0.0559 µM)
Neisseria gonorrhoeae, strain CDC42 (GCREF2012 039)
  MIC: 0.031 µg/mL (≈ 0.0559 µM)
Neisseria gonorrhoeae, strain CDC43 (GCREF2012 040)
  MIC: 0.031 µg/mL (≈ 0.0559 µM)
Neisseria gonorrhoeae, strain CDC45 (GCREF2012 042)
  MIC: 0.125 µg/mL (≈ 0.225 µM)
Neisseria gonorrhoeae, strain CDC46 (GCREF2012 043)
  MIC: 0.031 µg/mL (≈ 0.0559 µM)
Neisseria gonorrhoeae, strain CDC47 (GCREF2012 044)
  MIC: 0.031 µg/mL (≈ 0.0559 µM)
Neisseria gonorrhoeae, strain CDC48 (GCREF2012 046)
  MIC: 0.031 µg/mL (≈ 0.0559 µM)
Neisseria gonorrhoeae, strain CDC49 (GCREF2012 047)
  MIC: 0.031 µg/mL (≈ 0.0559 µM)
Neisseria gonorrhoeae, strain CDC50 (GCREF2012 048)
  MIC: 0.063 µg/mL (≈ 0.114 µM)
Neisseria gonorrhoeae, strain CDC51 (GCREF2012 049)
  MIC: 0.008 µg/mL (≈ 0.0144 µM)
Neisseria gonorrhoeae, strain CDC52 (GCREF2012 050)
  MIC: 0.008 µg/mL (≈ 0.0144 µM)
Neisseria gonorrhoeae, strain CDC53 (GCREF2012 051)
  MIC: 0.004 µg/mL (≈ 0.00721 µM)
Neisseria gonorrhoeae, strain CDC54 (GCREF2012 052)
  MIC: 0.004 µg/mL (≈ 0.00721 µM)
Neisseria gonorrhoeae, strain CDC55 (GCREF2013 001)
  MIC: 0.031 µg/mL (≈ 0.0559 µM)
Neisseria gonorrhoeae, strain CDC56 (GCREF2013 002)
  MIC: 0.016 µg/mL (≈ 0.0289 µM)
Neisseria gonorrhoeae, strain CDC57 (GCREF2013 003)
  MIC: 0.004 µg/mL (≈ 0.00721 µM)
Neisseria gonorrhoeae, strain CDC58 (GCREF2013 004)
  MIC: 0.004 µg/mL (≈ 0.00721 µM)
Neisseria gonorrhoeae, strain CDC59 (GCREF2013 044)
  MIC: 0.004 µg/mL (≈ 0.00721 µM)
Neisseria gonorrhoeae, strain CDC60 (GCREF2013 005)
  MIC: 0.031 µg/mL (≈ 0.0559 µM)
Neisseria gonorrhoeae, strain CDC61 (GCREF2013 006)
  MIC: 0.031 µg/mL (≈ 0.0559 µM)
Neisseria gonorrhoeae, strain CDC62 (GCREF2013 007)
  MIC: 0.008 µg/mL (≈ 0.0144 µM)
Neisseria gonorrhoeae, strain CDC64 (GCREF2013 009)
  MIC: 0.008 µg/mL (≈ 0.0144 µM)
Neisseria gonorrhoeae, strain CDC65 (GCREF2013 010)
  MIC: 0.016 µg/mL (≈ 0.0289 µM)
Neisseria gonorrhoeae, strain CDC66 (GCREF2013 011)
  MIC: 0.008 µg/mL (≈ 0.0144 µM)
Neisseria gonorrhoeae, strain CDC67 (GCREF2013 014)
  MIC: 0.008 µg/mL (≈ 0.0144 µM)
Neisseria gonorrhoeae, strain CDC68 (GCREF2013 016)
  MIC: 0.016 µg/mL (≈ 0.0289 µM)
Neisseria gonorrhoeae, strain CDC69 (GCREF2013 017)
  MIC: 0.031 µg/mL (≈ 0.0559 µM)
Neisseria gonorrhoeae, strain CDC70 (GCREF2013 018)
  MIC: 0.004 µg/mL (≈ 0.00721 µM)
Neisseria gonorrhoeae, strain CDC71 (GCREF2013 019)
  MIC: 0.008 µg/mL (≈ 0.0144 µM)
Neisseria gonorrhoeae, strain CDC72 (GCREF2013 020)
  MIC: 0.031 µg/mL (≈ 0.0559 µM)
Neisseria gonorrhoeae, strain CDC73 (GCREF2013 021)
  MIC: 0.008 µg/mL (≈ 0.0144 µM)
Neisseria gonorrhoeae, strain CDC74 (GCREF2013 022)
  MIC: 0.008 µg/mL (≈ 0.0144 µM)
Neisseria gonorrhoeae, strain CDC75 (GCREF2013 023)
  MIC: 0.016 µg/mL (≈ 0.0289 µM)
Neisseria gonorrhoeae, strain CDC76 (GCREF2013 024)
  MIC: 0.016 µg/mL (≈ 0.0289 µM)
Neisseria gonorrhoeae, strain CDC77 (GCREF2013 025)
  MIC: 0.008 µg/mL (≈ 0.0144 µM)
Neisseria gonorrhoeae, strain CDC78 (GCREF2013 026)
  MIC: 0.016 µg/mL (≈ 0.0289 µM)
Neisseria gonorrhoeae, strain CDC79 (GCREF2013 027)
  MIC: 0.016 µg/mL (≈ 0.0289 µM)
Neisseria gonorrhoeae, strain CDC80 (GCREF2013 028)
  MIC: 0.008 µg/mL (≈ 0.0144 µM)
Neisseria gonorrhoeae, strain CDC81 (GCREF2013 029)
  MIC: 0.031 µg/mL (≈ 0.0559 µM)
Neisseria gonorrhoeae, strain CDC82 (GCREF2013 031)
  MIC: 0.031 µg/mL (≈ 0.0559 µM)
Neisseria gonorrhoeae, strain CDC83 (GCREF2013 032)
  MIC: 0.008 µg/mL (≈ 0.0144 µM)
Neisseria gonorrhoeae, strain CDC84 (GCREF2013 033)
  MIC: 0.008 µg/mL (≈ 0.0144 µM)
Neisseria gonorrhoeae, strain CDC86 (GCREF2013 035)
  MIC: 0.008 µg/mL (≈ 0.0144 µM)
Neisseria gonorrhoeae, strain CDC87 (GCREF2013 036)
  MIC: 0.063 µg/mL (≈ 0.114 µM)
Neisseria gonorrhoeae, strain CDC88 (GCREF2013 037)
  MIC: 0.031 µg/mL (≈ 0.0559 µM)
Neisseria gonorrhoeae, strain CDC89 (GCREF2013 038)
  MIC: 0.008 µg/mL (≈ 0.0144 µM)
Neisseria gonorrhoeae, strain CDC90 (GCREF2013 039)
  MIC: 0.031 µg/mL (≈ 0.0559 µM)
Neisseria gonorrhoeae, strain CDC91 (GCREF2013 040)
  MIC: 0.125 µg/mL (≈ 0.225 µM)
Neisseria gonorrhoeae, strain CDC92 (GCREF2013 041)
  MIC: 0.031 µg/mL (≈ 0.0559 µM)
Neisseria gonorrhoeae, strain CDC93 (GCREF2013 042)
  MIC: 0.016 µg/mL (≈ 0.0289 µM)
Neisseria gonorrhoeae, strain CDC94 (GCREF2013 043)
  MIC: 0.008 µg/mL (≈ 0.0144 µM)
Neisseria gonorrhoeae, strain CDC95 (GCREF2013 045)
  MIC: 0.031 µg/mL (≈ 0.0559 µM)
Neisseria gonorrhoeae, strain CDC96 (GCREF2013 046)
  MIC: 0.016 µg/mL (≈ 0.0289 µM)
Neisseria gonorrhoeae, strain CDC97 (GCREF2013 047)
  MIC: 0.031 µg/mL (≈ 0.0559 µM)
Neisseria gonorrhoeae, strain CDC98 (GCREF2013 048)
  MIC: 0.008 µg/mL (≈ 0.0144 µM)
Neisseria gonorrhoeae, strain CDC99 (GCREF2013 012)
  MIC: 0.008 µg/mL (≈ 0.0144 µM)
Neisseria gonorrhoeae, strain CDC100 (GCREF2013 015)
  MIC: 0.031 µg/mL (≈ 0.0559 µM)
Neisseria gonorrhoeae, 96 clinical isolates, read-out: MIC50
  MIC50: 0.031 µg/mL (≈ 0.0559 µM)
Neisseria gonorrhoeae, 96 clinical isolates, read-out: MIC90
  MIC90: 0.063 µg/mL (≈ 0.114 µM)
